From article PMC12004904, “Antifouling Activity of Xylemin, Its Structural Analogs, and Related Polyamines” (Chemistry & Biodiversity, 2025)
Converted amounts (≈) assume the structure as drawn.

What was measured:
[1] = system: barnacle A. amphitrite; parameters: method as in ref 30 = [30]; 30 J. A. Ponasik , S. Conova , D. Kinghorn , W. A. Kinney , D. Rittschof , and B. Ganem , “ Pseudoceratidine, a Marine Natural Product with Antifouling Activity: Synthetic and Biological Studies ,” Te; details: cited from earlier work
[2] = system: cypris larvae of the barnacle Amphibalanus amphitrite; assay: Antifouling (settlement inhibition) assay against barnacle cypris larvae; assay type: in vivo; details: 96 h; for EC50: Amphibalanus amphitrite; for EC50 / Antifouling activity EC50: cypris larvae, 24‐well plates, 25°C, dark, concentration reducing larval settlement to 50% of negative control; for Antifouling (settlement‐inhibitory) activity in words: up to 50 µg/mL
Experimental: First, the biological activities of xylemin (1) and its related compounds were assayed against the cypris larvae of the barnacle A. amphitrite. The larvae were treated using 24‐well polystyrene plates with 6 different concentrations of the compounds at 25°C in the dark for 96 h.
Evaluation of the biological activity and statistical analysis were conducted according to the previous work. Adult barnacles of A. amphitrite attached to stones were collected in Kobe, Japan, in 2023 and maintained in aquaria. Nauplii released from adults were cultured in filtered seawater (FSW) with penicillin/streptomycin (FUJIFILM Wako Pure Chemical Corp., Osaka, Japan) and fed Chaetoceros calcitrans at 25°C, under a 12 h light/12 h dark cycle. The larvae reached the cypris stage after 5–6 days. Cyprids were collected, rinsed with FSW, and stored in the dark at 5°C for 3–4 days until use. The effects of the compounds on barnacle cyprids were evaluated using 24‐well polystyrene plates (Corning Inc., Corning, NY, USA). Each compound was dissolved in MeOH, and the solution was diluted with the same solvent to concentrations of 0.01, 0.03, 0.1, 0.3, 1.0, and 5.0 µg/µL. Aliquots (10 µL) of the solutions were added to the wells of the polystyrene plates and air‐dried. Each well was charged with approximately ten cypris larvae and FSW (1.0 mL). The plates were incubated at 25°C in the dark for 96 h. […] Each concentration was tested in three wells, and the experiment was performed three times with different batches of larvae. The assay was conducted using CuSO4 (0.01, 0.03, 0.1, 0.3, 1.0, 3.0, and 10 µg) as a positive control. An assay without any compound was used as a negative control. Settlement inhibition was calculated based on negative control settlement. Antifouling activity (EC50) and toxicity (LC50) were calculated using probit analyses. EC50 indicates the concentration that reduces the larval settlement to 50% of the negative control. LC50 indicates the concentration that causes 50% mortality.

[3] = system: thermospermine synthase ACAULIS5 (ACL5); parameters: method as in ref 25 = [25]; 25 H. Takamura , H. Motose , T. Otsu , et al., “ Chemical Synthesis and Biological Effect on Xylem Formation of Xylemin and Its Analogues ,” European Journal of Organic Chemistry 2020 ( 2020 ): 2745 –; details: cited from earlier work
[4] = system: xylem formation; parameters: method as in PMID 26879262; details: cited from earlier work
[5] = system: zooplankton Artenia larvae; parameters: method as in PMID 27919420; details: cited from earlier work

Compound	EC50 [2] [µg/mL]	Antifouling (settlement‐inhibitory) activity in words [2]	further results
O=C(O)c1cc(Br)c(Br)[nH]1 [4,5‐dibromopyrrole‐2‐carboxylic acid]	–	–	Antifouling activity EC50 [1]: 15 µg/mL
CCCNCCCCN [Compound 1, N‐(4‐aminobutyl)propylamine]	4.25 (≈ 32.6 µM)	–	Expression of ACL5 [3]: promoted the expression; Xylem formation / differentiation [4]: enhanced xylem formation
CCCNCCCCNC(=O)OC(C)(C)C [Compound 2]	6.11 (≈ 26.5 µM)	–	–
CCC(CC)NCCCCN [Compound 3, N‐(4‐aminobutyl)‐1‐ethylpropylamine]	> 50	–	–
NCCCCNC1CCCC1 [Compound 4, N‐(4‐aminobutyl)cyclopentylamine]	> 50	no inhibitory activity	Xylem formation / differentiation [4]: significant activity in promoting xylem differentiation
NCCCCNC1CCCCC1 [Compound 5, N‐(4‐aminobutyl)cyclohexylamine]	> 50	lacked antifouling activity	–
NCCCCNC1CCCCCC1 [Compound 6, N‐(4‐aminobutyl)cycloheptylamine]	> 50	lacked antifouling activity	–
NCCCCN [Compound 7, putrescine, reference compound]	> 50	non‐antifouling activity	–
NCCCCNCCCN [Compound 8, spermidine, reference compound]	–	did not exhibit antifouling activity	Antifouling activity EC50 [2]: >50 µg/mL
NCCCNCCCCNCCCN [Compound 9, spermine, reference compound]	–	–	Antifouling activity EC50 [2]: >50 µg/mL
NCCCCNCCCNCCCN [Compound 10, thermospermine, reference compound]	–	–	Antifouling activity EC50 [2]: >50 µg/mL
CN(C)C(=O)Nc1ccc(Cl)c(Cl)c1 [Diuron]	–	–	LC50 (50% lethal concentration) [5]: 30.6 µg/mL (≈ 131 µM)
NCCCCNC1CCCC1 [N‐(4‐aminobutyl)cyclopentylamine]	–	–	Expression of ACL5 [3]: promoted the expression; Xylem formation / differentiation [4]: enhanced xylem formation
NCCCCNCCCN [spermidine]	> 50	–	–
NCCCNCCCCNCCCN [spermine]	> 50	–	–
NCCCCNCCCNCCCN [thermospermine]	> 50	–	–
